Laboratory results taken from patent publication US11180523B2, “Design, synthesis and use of synthetic nucleotides comprising charge mass tags” (QuantuMDx Group Limited, priority 2016, dated 2021).
Blank lines part the entries; values can stand above or below the compound they belong to.

Key:
[1] = Photocleavage by irradiation with a mercury lamp, followed by LCMS; type: physicochemical; conditions: methanol and water, approximately 250 nm
Experimental: For illustrative purpose, initial testing of 3-(hydroxymethyl)naphthalen-2-ol derivative was carried out. The molecule was dissolved in a mixture of methanol and water, and was then irradiated for 90 min with light from a mercury lamp, which emits light with a wavelength of approximately 250 nm. […] After a further 90 min, there was approximately 20% starting material remaining.
In the experiments illustrated in FIG. 2, the molecule was dissolved in a mixture of methanol and water, and was then irradiated for 90 min with light from a mercury lamp, which emits light with a wavelength of approximately 250 nm. […] After a further 90 min, there was approximately 20% starting material remaining. […] The peak at 5 mins may be due to the diol being released.

DNA polymerase [2] = conditions: single base incorporation; overnight, ambient temperature; FIG. 4
Experimental: Sequencing reactions performed on bulk Si/SiO2 surfaces using both 3′ and 5′ surface tethered 30mer DNA, immobilised onto APDMES/PDC modified Si/SiO2 surface in the typical 4×4 array format. Here, Cy3 labelled dCTP was selectively incorporated to a hybridised primer using the covalently bound 30mer probe as a template. The reaction mix was spread over the silicon surface and incubated overnight in a dark humid chamber at ambient temperature. The silicon was then rinsed in 1× Thermopol buffer and dried using a nitrogen line. Fluorescence was visualised using an Olympus BX60 and imaged using Axio vision camera and Axiovision 3.1 software.
It should be noted that each spot would contain a number of DNA strands where the primer extension has taken place and therefore the florescence observed is due to several Cy3 dCTP's not just one base.

DNA polymerase [3] = assay: Real-time primer extension analysis (Rotorgene Q, SYBR Safe) with melt analysis; type: biochemical; conditions: single SC-TTP incorporation, compared with standard dNTPs; FIG. 3A
Excerpt: As specified the linker chain can play an important role, at least in some embodiments, in enabling the nucleotide to remain a polymerase substrate, as such any modified nucleotides have to be shown to be biologically active. In order to exemplify this and as an example of certain embodiments, a polymerase reaction mix may be used for real-time primer extension analysis with Rotor Template, which requires the incorporation of a single SC-TTP nucleotide followed by a sequence of 44 dCTP, dGTP, dATP nucleotides.
Primer extension reactions were monitored using the Rotorgene Q Real-time thermocycler, this allows primer extension to be monitored fluorescently using a dsDNA intercalator (SYBR Safe) with secondary melt analysis to provide further information on product composition. This method can be used with an oligonucleotide primer/template pair designed to allow complete extension of the primer with the incorporation of a single SC-TTP nucleotide. Initially, the experiment was be conducted with a 40° C. incubation and then repeated with a 65° C. incubation (optimum synthesis temperature for most commercial DNA Polymerases). Control reactions with standard dNTPs (positive control) and no dNTPs (negative control) were included, alongside a control(s) for mis-incorporation.

DNA polymerase [4] = assay: Primer extension reaction analysed by PAGE gel; conditions: incubated at 40° C.; compared with the positive control reaction
Experimental: Competitor oligos, complementary to the templates were also designed to aid gel analysis of a single stranded product. Primer extension reactions were conducted using the following reaction mix:
Following incubated at 40° C. in a hot block reactions were terminated by the addition of a ‘stop buffer’ containing chelators to inhibit polymerase activity in addition to formamide and competitor oligo to encourage denaturation of the double stranded DNA duplex for electrophoresis.

starting material remaining (LCMS) ([1]; after a further 90 min irradiation): approximately 20% | consumption of the starting material (LCMS) ([1]; irradiated for 90 min): 50%
Compound: COC(COCc1ccccc1)NC(=O)OCc1cc2ccccc2cc1O (centres unmarked) [(3-Hydroxynaphthalen-2-yl)methyl (2-(benzyloxy)-1-methoxyethyl)carbamate]

Compound: CCN1/C(=C/C=C/C2=[N+](CCCCCC(=O)NCC#Cc3cn(C4CC(O)C(COP(=O)([O-])OP(=O)([O-])OP(=O)([O-])[O-])O4)c(=O)nc3N)c3cc(S(=O)(=O)O)ccc3C2(C)C)C(C)(C)c2ccc(S(=O)(=O)[O-])cc21.[Li+].[Li+].[Li+].[Li+] (centres unmarked) [Cy3 labelled dCTP]
fluorescence of printed array post-sequencing and wash steps (DNA polymerase [2]): very weak fluorescence

Compound: [N-]=[N+]=NC(COc1cccc(C(=O)NCCNC(=O)c2cc(C(=O)O)cc(C(=O)O)c2)c1)OCCOCC(=O)NCC#Cc1cn([C@H]2C[C@H](O)[C@@H](COP(=O)(O)OP(=O)(O)OP(=O)(O)O)O2)c(=O)[nH]c1=O (some centres unmarked) [SC-TTP, Penta-Triethylammonium Cleavable SCTTP]
maximum fluorescence intensity associated with incorporation (primer extension) (DNA polymerase [3]): slightly reduced | band shift on gel after primer extension (DNA polymerase [4]): larger shift
